The text below walks through data of patent EP4759807A1, “PROTEOLYSIS TARGETING CHIMERA COMPOUND FOR DEGRADING IRAK4 AND USE THEREOF” (Shenzhen Zhongge Biological Technology Co., Ltd., priority 2023, dated 2025).

Common to all, as to experiment: Inhibitory effect on human liver microsome CYP450 enzyme
What all share (assay type): in vitro ADME
Background: Liver microsomes are vesicles of endoplasmic reticulum, rich in cytochrome P450 enzymes.

In one data set the target is T1, CYP1A2 (Homo sapiens, UniProt P05177).
T1 construct: 0.05 mg/mL liver microsomes (BioIVT, IHG) phosphate buffer solution; tissue BioIVT IHG; host or cells: human liver microsomes
T1 sequence (P05177 1-516): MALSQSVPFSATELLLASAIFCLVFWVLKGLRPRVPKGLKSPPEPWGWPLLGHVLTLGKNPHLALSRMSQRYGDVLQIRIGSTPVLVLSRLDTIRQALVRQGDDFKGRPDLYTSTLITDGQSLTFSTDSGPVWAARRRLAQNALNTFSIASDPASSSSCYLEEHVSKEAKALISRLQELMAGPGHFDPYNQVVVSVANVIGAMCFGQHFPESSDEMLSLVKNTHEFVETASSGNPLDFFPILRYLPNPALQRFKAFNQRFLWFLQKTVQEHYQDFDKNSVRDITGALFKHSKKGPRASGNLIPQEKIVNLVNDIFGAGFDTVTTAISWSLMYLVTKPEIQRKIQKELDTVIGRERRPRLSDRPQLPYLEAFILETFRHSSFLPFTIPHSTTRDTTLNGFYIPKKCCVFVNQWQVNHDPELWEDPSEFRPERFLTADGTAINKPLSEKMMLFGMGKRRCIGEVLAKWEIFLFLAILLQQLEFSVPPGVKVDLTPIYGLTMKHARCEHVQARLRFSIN
The conditions noted are these: human liver microsomes, substrate Phenacetin. How it is done: (§1) In this experiment, the compound, liver microsomes and different CYP isoform enzyme substrates were incubated in a 37°C water bath, the amount of substrate metabolites generated was measured, and the inhibitory effect of the compound of the present disclosure on CYP enzyme was evaluated based on the IC50 value.
(§2) i. The compound was diluted with DMSO (Aladdin, catalog number: D103273-500ml) to concentrations of 0, 0.02, 0.06, 0.2, 0.6, 2 and 6 mM. The positive reference inhibitors for each CYP isoform and their concentrations are shown in Table 4 Table 4 Positive reference inhibitors for CYP isoform enzymes and their concentrations
(§3) ii. Phosphate buffer (sigma: V900050-500G) was used to formulate the substrate solution for each CYP isoform enzyme. Table 5 The substrate and the concentration thereof for CYP isoform enzyme
(§4) iii. Sample incubation. 1 µL of each concentration of the compound and positive reference inhibitor for CYP isoform enzyme were taken and placed into a 96-deep well plate (A-gen: P-1.0-RD-96-S), and 169 µL of 0.05 mg/mL liver microsomes (BioIVT, IHG) phosphate buffer solution (using 0.2 mg/mL liver microsomes for CYP2C19) was added. After uniform mixing, the plate was placed in a 37°C water bath (Shanghai Jinghong Experimental Equipment Co., Ltd., DK-500) with shaking for pre-incubation for 15 min. 10 µL of substrate (adding 1 µL of substrate for CYP3A4-Testosterone) and 20 µL of 10 mM NADPH phosphate buffer solution (MCE, HYF003/CS-4998) were added. After uniform mixing, the plate was incubated in a water bath with shaking for the following time: CYP1A2: 20 min, CYP2C9: 10 min, CYP2C19: 10 min, CYP2D6: 10 min, CYP3A4-Testosterone: 10 min, CYP3A4-Midazolam: 5 min. 400 µL of glacial acetonitrile/methanol (v/v, 1:1) containing an internal standard (500 nM tolbutamide, 5 nM terfenadine) was added to terminate the reaction. After centrifugation at 4000 rpm at 4°C for 40 min, the supernatant was taken and diluted with pure water according to the response of the metabolite of the substrate, and then UPLC-MS/MS (Sciex, Q-Trap 4500) was used for detection to obtain the peak area. The C18 chromatographic column was Kinetex 2.6u C18 100A (50 mm*3 mm).
(§5) The inhibitory effect of the compound on each P450 enzyme in human liver microsomes was calculated as the percentage of reduced metabolite formation compared with the non-inhibitory control (i.e. blank DMSO). The IC50 value of the compound for each P450 enzyme in human liver microsomes was calculated with the logarithm of the remaining activity and the inhibitor concentration using Graphpad Prism software. The calculation equation was as follows: Peak area ratio = compound peak area / internal standard peak area [formula] [formula]
(§6) In Graphpad Prism software, the IC50 value was calculated using the standard four-parameter curve fitting algorithm.

Another data set has as its target T2, CYP3A4 (Homo sapiens, UniProt P08684).
T2 construct: 0.05 mg/mL liver microsomes (BioIVT, IHG) phosphate buffer solution; tissue BioIVT IHG; host or cells: human liver microsomes
The conditions noted are these: liver microsomes. How it is done: as §1, §2, §3, §4, §5, §6

In a further data set the target is T3, CYP2D6 (Homo sapiens, UniProt P10635).
T3 construct: 0.05 mg/mL liver microsomes (BioIVT, IHG) phosphate buffer solution; tissue BioIVT IHG; host or cells: human liver microsomes
T3 sequence (P10635 whole entry): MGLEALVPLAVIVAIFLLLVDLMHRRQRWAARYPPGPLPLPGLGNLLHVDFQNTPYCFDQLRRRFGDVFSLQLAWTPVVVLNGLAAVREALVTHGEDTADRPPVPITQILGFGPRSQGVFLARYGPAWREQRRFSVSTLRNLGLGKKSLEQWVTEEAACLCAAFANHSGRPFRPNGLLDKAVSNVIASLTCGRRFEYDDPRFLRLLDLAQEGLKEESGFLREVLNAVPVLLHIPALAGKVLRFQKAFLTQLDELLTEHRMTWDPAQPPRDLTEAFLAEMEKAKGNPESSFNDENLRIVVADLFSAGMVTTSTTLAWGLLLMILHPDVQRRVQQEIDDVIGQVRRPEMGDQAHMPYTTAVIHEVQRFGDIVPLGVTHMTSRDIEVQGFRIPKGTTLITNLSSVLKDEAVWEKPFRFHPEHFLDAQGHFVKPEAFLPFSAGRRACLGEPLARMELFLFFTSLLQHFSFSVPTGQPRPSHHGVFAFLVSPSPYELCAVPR
The conditions noted are these: human liver microsomes, substrate Dextromethorphan. How it is done:
as §1, §2, §3, §4, §5, §6

The next data set has as its target T4, CYP2C9 (Homo sapiens, UniProt P11712).
T4 construct: 0.05 mg/mL liver microsomes (BioIVT, IHG) phosphate buffer solution; tissue BioIVT IHG; host or cells: human liver microsomes
The conditions noted are these: human liver microsomes, substrate Diclofenac Sodium. How it is done:
as §1, §2, §3, §4, §5, §6

For a further data set, the target named is T5, CYP2C19 (Homo sapiens, UniProt P33261).
T5 construct: (using 0.2 mg/mL liver microsomes for CYP2C19); tissue BioIVT IHG; host or cells: human liver microsomes
T5 sequence (P33261 whole entry): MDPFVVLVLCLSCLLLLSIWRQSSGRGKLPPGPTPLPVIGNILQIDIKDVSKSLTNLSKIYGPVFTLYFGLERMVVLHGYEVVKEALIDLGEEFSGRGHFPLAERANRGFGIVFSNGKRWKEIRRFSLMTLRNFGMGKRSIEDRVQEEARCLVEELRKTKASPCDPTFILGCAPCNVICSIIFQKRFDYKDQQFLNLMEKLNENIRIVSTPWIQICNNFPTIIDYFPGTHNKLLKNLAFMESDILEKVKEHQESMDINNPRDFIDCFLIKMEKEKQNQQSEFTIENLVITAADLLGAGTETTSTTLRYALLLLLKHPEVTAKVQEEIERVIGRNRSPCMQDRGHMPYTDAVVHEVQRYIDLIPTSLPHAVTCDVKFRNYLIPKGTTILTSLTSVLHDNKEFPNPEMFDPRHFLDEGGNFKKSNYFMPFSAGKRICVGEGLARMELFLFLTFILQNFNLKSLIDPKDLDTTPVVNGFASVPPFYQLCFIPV
The conditions noted are these: human liver microsomes, substrate Mephenytoin. How it is done:
as §1, §2, §3, §4, §5, §6

Like-named read-outs stand apart in the source and are kept apart here.

T2 sequence (P08684 whole entry): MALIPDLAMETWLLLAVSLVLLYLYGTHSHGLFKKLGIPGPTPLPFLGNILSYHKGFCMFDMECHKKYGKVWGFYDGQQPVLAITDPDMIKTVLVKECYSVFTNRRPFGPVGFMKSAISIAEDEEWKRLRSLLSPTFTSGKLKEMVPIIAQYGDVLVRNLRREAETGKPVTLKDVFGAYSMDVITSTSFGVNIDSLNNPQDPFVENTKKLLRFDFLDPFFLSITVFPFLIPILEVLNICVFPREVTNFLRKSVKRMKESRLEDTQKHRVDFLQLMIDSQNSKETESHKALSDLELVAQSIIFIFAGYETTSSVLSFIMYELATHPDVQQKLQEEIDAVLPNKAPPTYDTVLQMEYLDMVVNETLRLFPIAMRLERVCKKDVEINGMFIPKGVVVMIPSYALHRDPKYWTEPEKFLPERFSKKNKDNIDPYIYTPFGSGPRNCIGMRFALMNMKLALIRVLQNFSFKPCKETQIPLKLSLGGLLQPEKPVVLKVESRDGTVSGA
T4 sequence (P11712 whole entry): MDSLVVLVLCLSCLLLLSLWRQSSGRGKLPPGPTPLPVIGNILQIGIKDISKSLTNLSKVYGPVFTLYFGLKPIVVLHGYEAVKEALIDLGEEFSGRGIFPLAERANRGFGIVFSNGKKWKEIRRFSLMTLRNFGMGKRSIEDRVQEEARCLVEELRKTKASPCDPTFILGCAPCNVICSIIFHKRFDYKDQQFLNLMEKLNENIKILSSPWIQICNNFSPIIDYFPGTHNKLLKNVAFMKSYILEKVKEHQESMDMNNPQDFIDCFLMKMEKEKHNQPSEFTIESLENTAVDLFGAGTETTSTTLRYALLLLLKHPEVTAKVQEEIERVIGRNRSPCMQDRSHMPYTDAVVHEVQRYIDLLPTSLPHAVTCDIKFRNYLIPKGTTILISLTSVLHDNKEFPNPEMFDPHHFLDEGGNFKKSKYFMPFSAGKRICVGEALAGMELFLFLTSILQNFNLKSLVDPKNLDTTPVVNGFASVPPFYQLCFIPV

The term IC50 denotes the concentration that gives 50% inhibition. Regarding `Cn1c(=O)n(C2CCC(=O)NC2=O)c2cccc(N3CCC(N4CCN(C[C@H]5CC[C@H](n6cc(-n7cc(-c8cnn9ccc(N%10CCC[C@H](O)C%10)nc89)nn7)c(C(F)F)n6)CC5)CC4)CC3)c21` (stereo partly drawn) [Example 146], the IC50 is > 30 µM at CYP1A2; > 30 µM on CYP3A4 (substrate Midazolam, read-out: IC50 (µM) CYP3A4-M); > 30 µM on CYP3A4 (substrate Testosterone, read-out: IC50 (µM) CYP3A4-T); > 30 µM against CYP2D6; > 30 µM on CYP2C9; 18.4 µM at CYP2C19.
